In patent publication US8217013B2, “Polyene diester antibiotics” (priority 2007, dated 2012):
Like-named read-outs stand apart in the source and are kept apart here.

Experiments:
[1] = test system: Candida albicans; assay: Test of antibacterial activity in vitro (bacteria-inhibition zone); assay type: cell-based; details: for zone of inhibition at 1.4 µg/mL / zone of inhibition at 2.8 µg/mL: Candida albicans
From the text: Test of Antibacterial Activity In Vitro
Experiment drugs: the polyene diester compounds prepared by examples 1-12
Control drugs: amphotericin B (standard product) • mycostatin (standard product) • natamycin (standard product)
2.1 Preparation of Candida albicans suspension: PHARMACOPOEIA OF THE PEOPLES REPUBLIC OF CHINA, second part, 2005 edition, appendix p 81-84.
Taking appropriate amount of the above mentioned amphotericin B, mycostatin, natamycin and the polyene diester compounds prepared by examples 1-8 and 10-12, dissolving in a little dimethyl sulfoxide respectively, using pH7 phosphate buffer to dilute into solution which is equivalent to contain amphotericin B, mycostatin, natamycin 280 Units per milliliter, taking 1 ml and using pH7 phosphate buffer to quantitatively dilute into solution which is equivalent to contain amphotericin B 1.4 μg/ml and 2.8 μg/ml, and is equivalent to contain 5.6 μg/ml of mycostatin and natamycin.
In addition, preparing the solution according to the same method, adding 40% defibered sheep serum, using pH7 phosphate buffer to quantitatively dilute into unit solution which is equivalent to contain amphotericin B 1.4 μg/ml and 2.8 μg/ml, and is equivalent to contain 5.6 μg/ml of mycostatin and natamycin. Testing according to PHARMACOPOEIA OF THE PEOPLES REPUBLIC OF CHINA, second part, 2005 edition, appendix XIA The Antibiotics Microorganism Test.
Medium: Improved Martin Agar Medium, PHARMACOPOEIA OF THE PEOPLES REPUBLIC OF CHINA, second part, 2005 edition, appendix p 84.
Test method: Double-plate counting method; […] bacteria bed 15 ml to replace the double layers, culture temperature: 37° C., time: 24 h; strain concentration: 1% […]

[2] = test system: Saccharomyces cerevisiae; assay: as above; assay type: cell-based; details: for zone of inhibition at 1.4 µg/mL / zone of inhibition at 2.8 µg/mL: Saccharomyces cerevisiae
[3] = test system: Candida mycoderma; assay: as above; assay type: cell-based
[4] = test system: most of the fungal; details: for most of the fungal; cited from earlier work
[5] = study by Rutgers University; cited from earlier work
[6] = test system: esterase; details: cited from earlier work
[7] = test system: esterase; assay: Test of esterase hydrolysis in sheep blood serum (HPLC); assay type: in vitro ADME
Procedure: Test of Esterase […]
Experiment drugs: the amphotericin B methyl pivalate prepared by example 1
Control drug: amphotericin B (standard product)
The stationary phase: Hypersil ODS2 5 um 4.6 mm×250 mm
The mobile phase: methanol: acetonitrile: EDTA-2Na (0.5 mmol)=60:20:20 flow rate: 1 ml/min
Detection system: ultraviolet detection, detection wavelength: 410 nm
Taking appropriate amount of the above mentioned amphotericin B, and amphotericin B methyl pivalate prepared by example 1, dissolving in a little dimethyl sulfoxide respectively, using pH7 phosphate buffer to dilute into solution which is equivalent to contain amphotericin B 280 Units per milliliter, taking 1 ml and using pH7 phosphate buffer to quantitatively dilute into solution which is equivalent to contain amphotericin B 2.8 μg/ml.
Again, preparing the solution according to the same method, adding 10% defibered sheep blood serum, using pH7 phosphate buffer to quantitatively dilute into solution which is equivalent to contain amphotericin B 2.8 μg/ml.
4. Mixing the amphotericin B methyl pivalate prepared by example 1 with sheep blood serum at 37° C. and culturing.
Referring to the test conditions of HPLC of example 25, wherein the mobile phase is acetonitrile: 0.05M ammonium acetate solution=60:40.

[8] = 0 h, 1.4 μg/ml after conversion, no serum
[9] = 0 h, 1.4 μg/ml after conversion, serum added (40% defibered sheep serum)
[10] = 0 h, 2.8 μg/ml after conversion, no serum
[11] = 0 h, 2.8 μg/ml after conversion, serum added (40% defibered sheep serum)
[12] = 6 h, 1.4 μg/ml after conversion, no serum
[13] = 6 h, 1.4 μg/ml after conversion, serum added (40% defibered sheep serum)
[14] = 6 h, 2.8 μg/ml after conversion, no serum
[15] = 24 h, 1.4 μg/ml after conversion, no serum
[16] = 24 h, 2.8 μg/ml after conversion, no serum
[17] = 48 h, 1.4 μg/ml after conversion, no serum
[18] = 48 h, 2.8 μg/ml after conversion, no serum

C[C@@H]1[C@H](O)[C@@H](C)/C=C/C=C/C=C/C=C/C=C/C=C/C=C/[C@H](O[C@@H]2O[C@H](C)[C@@H](O)[C@H](N)[C@@H]2O)C[C@@H]2O[C@](O)(C[C@@H](O)C[C@@H](O)[C@H](O)CC[C@@H](O)C[C@@H](O)CC(=O)O[C@H]1C)C[C@H](O)[C@H]2C(=O)O [amphotericin B, reference compound]
zone of inhibition at 1.4 µg/mL ([1]; 0 h, 1.4 μg/ml after conversion, serum added (40% defibered sheep serum), read-out: diameter of the bacteria-inhibition zone, Candida albicans 0 h): 12 to 14 mm | zone of inhibition at 2.8 µg/mL ([1]; 0 h, 2.8 μg/ml after conversion, no serum, read-out: diameter of the bacteria-inhibition zone, Candida albicans 0 h): 14 to 16 mm | zone of inhibition at 1.4 µg/mL ([1]; 6 h, 1.4 μg/ml after conversion, serum added (40% defibered sheep serum), read-out: diameter of the bacteria-inhibition zone, Candida albicans 6 h): 12 to 14 mm | zone of inhibition at 2.8 µg/mL ([1]; 6 h, 2.8 μg/ml after conversion, no serum, read-out: diameter of the bacteria-inhibition zone, Candida albicans 6 h): 14 to 16 mm | zone of inhibition at 1.4 µg/mL ([1]; 24 h, 1.4 μg/ml after conversion, serum added (40% defibered sheep serum), read-out: diameter of the bacteria-inhibition zone, Candida albicans 24 h): 12 to 14 mm | zone of inhibition at 2.8 µg/mL ([1]; 24 h, 2.8 μg/ml after conversion, no serum, read-out: diameter of the bacteria-inhibition zone, Candida albicans 24 h): 14 to 16 mm | zone of inhibition at 1.4 µg/mL ([1]; 48 h, 1.4 μg/ml after conversion, serum added (40% defibered sheep serum), read-out: diameter of the bacteria-inhibition zone, Candida albicans 48 h): 12 to 14 mm | zone of inhibition at 2.8 µg/mL ([1]; 48 h, 2.8 μg/ml after conversion, no serum, read-out: diameter of the bacteria-inhibition zone, Candida albicans 48 h): 14 to 16 mm | zone of inhibition at 1.4 µg/mL ([2]; 0 h, 1.4 μg/ml after conversion, serum added (40% defibered sheep serum), read-out: diameter of the bacteria-inhibition zone, Saccharomyces cerevisiae 0 h): 14 to 16 mm | zone of inhibition at 2.8 µg/mL ([2]; 0 h, 2.8 μg/ml after conversion, no serum, read-out: diameter of the bacteria-inhibition zone, Saccharomyces cerevisiae 0 h): 16 to 18 mm | zone of inhibition at 1.4 µg/mL ([2]; 6 h, 1.4 μg/ml after conversion, serum added (40% defibered sheep serum), read-out: diameter of the bacteria-inhibition zone, Saccharomyces cerevisiae 6 h): 14 to 16 mm | zone of inhibition at 2.8 µg/mL ([2]; 6 h, 2.8 μg/ml after conversion, no serum, read-out: diameter of the bacteria-inhibition zone, Saccharomyces cerevisiae 6 h): 16 to 18 mm | zone of inhibition at 1.4 µg/mL ([2]; 24 h, 1.4 μg/ml after conversion, serum added (40% defibered sheep serum), read-out: diameter of the bacteria-inhibition zone, Saccharomyces cerevisiae 24 h): 14 to 16 mm | zone of inhibition at 2.8 µg/mL ([2]; 24 h, 2.8 μg/ml after conversion, no serum, read-out: diameter of the bacteria-inhibition zone, Saccharomyces cerevisiae 24 h): 16 to 18 mm | zone of inhibition at 1.4 µg/mL ([2]; 48 h, 1.4 μg/ml after conversion, serum added (40% defibered sheep serum), read-out: diameter of the bacteria-inhibition zone, Saccharomyces cerevisiae 48 h): 14 to 16 mm | zone of inhibition at 2.8 µg/mL ([2]; 48 h, 2.8 μg/ml after conversion, no serum, read-out: diameter of the bacteria-inhibition zone, Saccharomyces cerevisiae 48 h): 16 to 18 mm | zone of inhibition at 1.4 µg/mL ([3]; 0 h, 1.4 μg/ml after conversion, serum added (40% defibered sheep serum), read-out: diameter of the bacteria-inhibition zone, Candida mycoderma 0 h): 12 to 14 mm | zone of inhibition at 2.8 µg/mL ([3]; 0 h, 2.8 μg/ml after conversion, no serum, read-out: diameter of the bacteria-inhibition zone, Candida mycoderma 0 h): 14 to 16 mm | zone of inhibition at 1.4 µg/mL ([3]; 6 h, 1.4 μg/ml after conversion, serum added (40% defibered sheep serum), read-out: diameter of the bacteria-inhibition zone, Candida mycoderma 6 h): 12 to 14 mm | zone of inhibition at 2.8 µg/mL ([3]; 6 h, 2.8 μg/ml after conversion, no serum, read-out: diameter of the bacteria-inhibition zone, Candida mycoderma 6 h): 14 to 16 mm | zone of inhibition at 1.4 µg/mL ([3]; 24 h, 1.4 μg/ml after conversion, serum added (40% defibered sheep serum), read-out: diameter of the bacteria-inhibition zone, Candida mycoderma 24 h): 12 to 14 mm | zone of inhibition at 2.8 µg/mL ([3]; 24 h, 2.8 μg/ml after conversion, no serum, read-out: diameter of the bacteria-inhibition zone, Candida mycoderma 24 h): 14 to 16 mm | zone of inhibition at 1.4 µg/mL ([3]; 48 h, 1.4 μg/ml after conversion, serum added (40% defibered sheep serum), read-out: diameter of the bacteria-inhibition zone, Candida mycoderma 48 h): 12 to 14 mm | zone of inhibition at 2.8 µg/mL ([3]; 48 h, 2.8 μg/ml after conversion, no serum, read-out: diameter of the bacteria-inhibition zone, Candida mycoderma 48 h): 14 to 16 mm | minimum inhibitory concentration (MIC) [4]: 0.02 to 1 µg/mL

COC(=O)[C@H]1[C@@H]2C[C@@H](O[C@@H]3O[C@H](C)[C@@H](O)[C@H](N)[C@@H]3O)/C=C/C=C/C=C/C=C/C=C/C=C/C=C/[C@H](C)[C@@H](O)[C@@H](C)[C@H](C)OC(=O)C[C@H](O)C[C@H](O)CC[C@@H](O)[C@H](O)C[C@H](O)C[C@](O)(C[C@@H]1O)O2 [amphotericin methyl ester]
toxicity [5]: toxicity was lowered | hydrolysis by esterase in vivo [6]: cannot be hydrolyzed by esterase in vivo

amphotericin B methyl pivalate
diameter of the bacteria-inhibition zone, Candida albicans 0 h [1, 8]: + (7-9 mm: +) | diameter of the bacteria-inhibition zone, Candida albicans 0 h [1, 9]: + (7-9 mm: +) | diameter of the bacteria-inhibition zone, Candida albicans 0 h [1, 10]: ++ (9-12 mm: ++) | diameter of the bacteria-inhibition zone, Candida albicans 0 h [1, 11]: ++ (9-12 mm: ++) | diameter of the bacteria-inhibition zone, Candida albicans 6 h [1, 12]: + (7-9 mm: +) | diameter of the bacteria-inhibition zone, Candida albicans 6 h [1, 13]: ++ (9-12 mm: ++) | diameter of the bacteria-inhibition zone, Candida albicans 6 h [1, 14]: ++ (9-12 mm: ++) | diameter of the bacteria-inhibition zone, Candida albicans 24 h [1, 15]: + (7-9 mm: +) | diameter of the bacteria-inhibition zone, Candida albicans 24 h [1, 16]: ++ (9-12 mm: ++) | diameter of the bacteria-inhibition zone, Candida albicans 48 h [1, 17]: + (7-9 mm: +) | diameter of the bacteria-inhibition zone, Candida albicans 48 h [1, 18]: ++ (9-12 mm: ++) | diameter of the bacteria-inhibition zone, Saccharomyces cerevisiae 0 h [2, 8]: + (7-9 mm: +) | diameter of the bacteria-inhibition zone, Saccharomyces cerevisiae 0 h [2, 9]: + (7-9 mm: +) | diameter of the bacteria-inhibition zone, Saccharomyces cerevisiae 0 h [2, 10]: ++ (9-12 mm: ++) | diameter of the bacteria-inhibition zone, Saccharomyces cerevisiae 0 h [2, 11]: ++ (9-12 mm: ++) | diameter of the bacteria-inhibition zone, Saccharomyces cerevisiae 6 h [2, 12]: + (7-9 mm: +) | diameter of the bacteria-inhibition zone, Saccharomyces cerevisiae 6 h [2, 14]: ++ (9-12 mm: ++) | diameter of the bacteria-inhibition zone, Saccharomyces cerevisiae 24 h [2, 15]: + (7-9 mm: +) | diameter of the bacteria-inhibition zone, Saccharomyces cerevisiae 24 h [2, 16]: ++ (9-12 mm: ++) | diameter of the bacteria-inhibition zone, Saccharomyces cerevisiae 48 h [2, 17]: + (7-9 mm: +) | diameter of the bacteria-inhibition zone, Saccharomyces cerevisiae 48 h [2, 18]: ++ (9-12 mm: ++) | diameter of the bacteria-inhibition zone, Candida mycoderma 0 h [3, 8]: + (7-9 mm: +) | diameter of the bacteria-inhibition zone, Candida mycoderma 0 h [3, 9]: + (7-9 mm: +) | diameter of the bacteria-inhibition zone, Candida mycoderma 0 h [3, 10]: ++ (9-12 mm: ++) | diameter of the bacteria-inhibition zone, Candida mycoderma 0 h [3, 11]: ++ (9-12 mm: ++) | diameter of the bacteria-inhibition zone, Candida mycoderma 6 h [3, 12]: + (7-9 mm: +) | diameter of the bacteria-inhibition zone, Candida mycoderma 6 h [3, 13]: ++ (9-12 mm: ++) | diameter of the bacteria-inhibition zone, Candida mycoderma 6 h [3, 14]: ++ (9-12 mm: ++) | diameter of the bacteria-inhibition zone, Candida mycoderma 24 h [3, 15]: + (7-9 mm: +) | diameter of the bacteria-inhibition zone, Candida mycoderma 24 h [3, 16]: ++ (9-12 mm: ++) | diameter of the bacteria-inhibition zone, Candida mycoderma 48 h [3, 17]: + (7-9 mm: +) | diameter of the bacteria-inhibition zone, Candida mycoderma 48 h [3, 18]: ++ (9-12 mm: ++) | hydrolysis by esterase to release the original drug, after 24 hours ([7]; 10% defibered sheep blood serum, 37° C., 24 hours): most of the diester derivative is hydrolyzed by esterase to release amphotericin B | hydrolysis by esterase under sheep blood serum cultivation, release of the original drug ([7]; sheep blood serum, 37° C., 2, 6 and 24 hours): gradually hydrolyzed by esterase
